According to patent publication US20100075965A1, “PI3 KINASE INHIBITORS AND METHODS OF THEIR USE” (Novartis AG, priority 2006, published 2010):
Where two headings read alike, the source gives them in different places.

Experiments:
[1] = test system: A2780 cells; assay: Viability assay in A2780 (Cell Titer Glo); assay type: cell-based, human; conditions: Homo sapiens, A2780 cells, read-out: A2780 Cell prolif. EC50
How it was run: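 EC50 values come from Cell Titer Glo luminescence after 72 hrs of compound exposure at 37° C, run in duplicate. A2780 cells were plated at 1,000 per well in DMEM with 10% FBS and dosed with 3-fold serial dilutions.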

[2] = target: PI3 K Alpha (Homo sapiens, UniProt P42336); assay: PI3 kinase phosphorylation assays (homogenous solution phase, one step solid phase, ATP depletion/KinaseGlo); assay type: biochemical
Chain of PI3 K Alpha (P42336 whole entry): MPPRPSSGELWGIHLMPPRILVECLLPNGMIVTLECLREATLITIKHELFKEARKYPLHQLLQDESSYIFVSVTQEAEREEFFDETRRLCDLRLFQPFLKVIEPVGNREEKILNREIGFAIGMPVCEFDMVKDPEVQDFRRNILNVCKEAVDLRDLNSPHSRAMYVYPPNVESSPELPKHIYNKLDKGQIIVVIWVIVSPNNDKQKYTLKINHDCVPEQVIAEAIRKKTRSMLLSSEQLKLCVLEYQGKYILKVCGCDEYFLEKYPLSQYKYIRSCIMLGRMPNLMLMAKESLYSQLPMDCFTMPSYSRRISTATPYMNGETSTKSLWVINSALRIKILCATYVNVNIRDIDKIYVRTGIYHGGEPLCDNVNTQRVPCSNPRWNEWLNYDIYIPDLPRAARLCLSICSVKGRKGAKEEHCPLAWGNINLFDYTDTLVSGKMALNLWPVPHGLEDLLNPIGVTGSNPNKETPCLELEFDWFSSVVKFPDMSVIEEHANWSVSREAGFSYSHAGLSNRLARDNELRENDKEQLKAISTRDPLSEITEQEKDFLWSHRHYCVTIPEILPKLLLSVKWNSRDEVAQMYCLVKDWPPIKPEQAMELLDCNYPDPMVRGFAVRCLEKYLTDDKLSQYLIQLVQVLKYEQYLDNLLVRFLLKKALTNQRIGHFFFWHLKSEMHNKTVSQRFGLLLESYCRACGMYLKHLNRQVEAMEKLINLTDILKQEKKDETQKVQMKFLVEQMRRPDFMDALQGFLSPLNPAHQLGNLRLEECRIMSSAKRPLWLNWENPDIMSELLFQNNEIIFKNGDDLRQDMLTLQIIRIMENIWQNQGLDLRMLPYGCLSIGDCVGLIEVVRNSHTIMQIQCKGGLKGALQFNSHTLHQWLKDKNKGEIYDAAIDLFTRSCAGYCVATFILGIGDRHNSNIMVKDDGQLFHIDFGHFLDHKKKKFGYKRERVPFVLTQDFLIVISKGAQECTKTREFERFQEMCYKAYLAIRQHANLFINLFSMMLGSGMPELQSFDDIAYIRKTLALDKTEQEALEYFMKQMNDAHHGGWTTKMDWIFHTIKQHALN
Chain of PI3 K Alpha (P27986 whole entry partner): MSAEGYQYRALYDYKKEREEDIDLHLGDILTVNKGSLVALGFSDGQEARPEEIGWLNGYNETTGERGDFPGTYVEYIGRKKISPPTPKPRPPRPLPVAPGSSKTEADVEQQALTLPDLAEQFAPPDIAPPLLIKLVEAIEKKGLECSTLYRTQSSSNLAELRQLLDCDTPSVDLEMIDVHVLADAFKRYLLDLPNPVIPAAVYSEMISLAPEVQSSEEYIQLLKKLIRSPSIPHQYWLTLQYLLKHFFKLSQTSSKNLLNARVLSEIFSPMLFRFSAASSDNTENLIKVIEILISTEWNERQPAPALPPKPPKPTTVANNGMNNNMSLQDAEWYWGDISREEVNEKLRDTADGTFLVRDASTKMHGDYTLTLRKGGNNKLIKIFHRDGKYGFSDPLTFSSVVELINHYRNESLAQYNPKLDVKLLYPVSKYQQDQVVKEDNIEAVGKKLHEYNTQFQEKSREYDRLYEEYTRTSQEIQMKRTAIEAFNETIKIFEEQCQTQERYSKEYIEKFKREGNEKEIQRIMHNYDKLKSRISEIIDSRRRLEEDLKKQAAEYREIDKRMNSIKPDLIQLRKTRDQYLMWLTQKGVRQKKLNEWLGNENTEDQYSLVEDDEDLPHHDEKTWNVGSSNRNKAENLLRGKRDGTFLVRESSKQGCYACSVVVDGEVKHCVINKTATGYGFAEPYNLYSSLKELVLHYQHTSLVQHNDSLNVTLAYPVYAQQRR

[3] = test system: pSer473-Akt in A2780 cells; assay: pSer473 Akt assay to monitor PI3K pathway in A2780 cells (MSD); assay type: cell-based; conditions: Homo sapiens, A2780 cells
Procedure: In this method, an assay for measuring the PI3K-mediated pSer^473-Akt status after treatment with representative inhibitor compounds of the preferred embodiments is described.
A2780 cells were cultured in DMEM supplemented with 10% FBS, L-glutamine, sodium pyruvate, and antibiotics. Cells were plated in the same medium at a density of 15,000 cells per well into 96 well tissue culture plates, with outside wells vacant, and allowed to adhere overnight.
Test compounds supplied in DMSO were diluted further into DMSO at 500 times the desired final concentrations before dilution into culture media to 2 times the final concentrations. Equal volumes of 2× compounds in media were added to the cells in 96 well plates and incubated at 37° C. for one hour. The media and compounds were then removed, the plates chilled and cells lysed in a lysis buffer (150 mM NaCl, 20 mM Tris pH 7.5, 1 mM EDTA, 1 mM EGTA, 1% Triton X-100) supplemented with phosphatase and protease inhibitors. After thorough mixing, lysates were transferred to both pSer473Akt and total Akt assay plates from Meso Scale Discovery (MSD), and incubated overnight with shaking at 4° C. The plates were washed with 1×MSD wash buffer and the captured analytes detected with secondary antibodies. After incubation with the secondary antibody at room temperature for 1-2 hours, the plates were washed again and 1.5× concentration of Read Buffer T (MSD) was added to the wells.
The assays were read on a SECTOR Imager 6000 instrument (Meso Scale Discovery). Ratios of the signal from pSer473Akt and total Akt assays were used to correct for any variability and the percent inhibition of pSer473Akt from the total signal seen in cells treated with compound versus DMSO alone was calculated and used to determine EC50 values for each compound as shown in Tables 1 and 2 in the column labeled “A2780 pAKT473 EC50”.

[4] = ATP depletion assay, read-out: PI3 K Alpha IC50
[5] = 1 h, one hour incubation, read-out: A2780 pAKT473 EC50

SMILES	EC50 [1]	IC50 ([2]; read-out: PI3K Alpha IC50)	EC50 ([3]; read-out: A2780 pAKT 473 EC50)	EC50 ([1]; 72 hrs)	IC50 [2, 4]	EC50 [3, 5]
CC(=O)Nc1cn2cc(-c3cnc(N)cc3F)ccc2n1 [Example 29, N-[6-(6-Amino-4-fluoro-pyridin-3-yl)-imidazo[1,2-a]pyridin-2-yl]-acetamide]	< 25000 nM	< 1000 nM	< 10000 nM			
CC(=O)Nc1cn2cc(-c3cnc(N)c(C(=O)NCCN4CCCC4)n3)ccc2n1 [Example 100, 6-(2-acetamido-imidazo[1,2-a]pyridin-6-yl)-3-amino-N-(2-(pyrrolidin-1-yl)ethyl) pyrazine-2-carboxamide]	< 1000 nM	< 1000 nM	< 1000 nM			
CCN1CCCCC1CCC(=O)Nc1cn2nc(-c3cnc(N)c(C(F)(F)F)c3)ccc2n1 (stereo not drawn) [Example 104, N-(6-(6-amino-5-(trifluoromethyl)pyridin-3-yl)imidazo[1,2-b]pyridazin-2-yl)-3-(1-ethylpiperidin-2-yl)propanamide]	< 1000 nM	< 1000 nM	< 1000 nM			
NC(=O)[C@@H]1CCCN1C(=O)Nc1nc2ccc(-c3cnc(N)c(C(F)(F)F)c3)cc2s1 [Example 2-33, (S)-N1-(6-(6-amino-5-(trifluoromethyl)pyridin-3-yl)benzo[d]thiazol-2-yl)pyrrolidine-1,2-dicarboxamide]				< 10000 nM	< 1000 nM	< 1000 nM
CC(=O)Nc1cn2cc(-c3cnc(N)c(-c4ccccc4OC(F)(F)F)c3)ccc2n1 [Example 121, N-(6-(6-amino-5-(2-(trifluoromethoxy)phenyl)pyridin-3-yl)imidazo[1,2-a]pyridin-2-yl)acetamide]	< 10000 nM	< 1000 nM	< 1000 nM			
Nc1ccc(-c2ccc3nc(NC(=O)CN4CCOCC4)sc3c2)cn1 [Example 2-16, N-[6-(6-Amino-pyridin-3-yl)-benzothiazol-2-yl]-2-morpholin-4-yl-acetamide]				< 25000 nM	< 1000 nM	< 1000 nM
CC(=O)Nc1cn2cc(-c3cnc(N)c(-c4cccc(C(F)(F)F)c4)c3)ccc2n1 [Example 88, N-(6-(6-amino-5-(3-(trifluoromethyl)phenyl)pyridin-3-yl)imidazo[1,2-a]pyridin-2-yl)acetamide]	< 1000 nM	< 1000 nM	< 1000 nM			
CCC(=O)Nc1cn2nc(-c3cnc(N)c(C(F)(F)F)c3)ccc2n1 [Example 96, N-(6-(6-amino-5-(trifluoromethyl)pyridin-3-yl)imidazo[1,2-b]pyridazin-2-yl)propionamide]	< 1000 nM	< 1000 nM	< 1000 nM			
CC(C)(C)OC(=O)NCCCC(=O)Nc1cn2nc(-c3cnc(N)c(C(F)(F)F)c3)ccc2n1 [Example 79, tert-butyl 4-(6-(6-amino-5-(trifluoromethyl)pyridin-3-yl)imidazo[1,2-b]pyridazin-2-ylamino)-4-oxobutylcarbamate]	< 1000 nM	< 1000 nM	< 10000 nM			
CCOCC(=O)Nc1cn2nc(-c3cnc(N)c(C(F)(F)F)c3)ccc2n1 [Example 118, N-(6-(6-amino-5-(trifluoromethyl)pyridin-3-yl)imidazo[1,2-b]pyridazin-2-yl)-2-ethoxyacetamide]	< 10000 nM	< 1000 nM	< 1000 nM			
COc1ccc(CC(=O)Nc2cn3cc(-c4cnc(N)c(C(F)(F)F)c4)ccc3n2)cc1OC [Example 51]	< 10000 nM	< 1000 nM	< 1000 nM			
COCC(=O)Nc1cn2cc(-c3cnc(N)c(OCC(F)(F)F)n3)ccc2n1 [Example 89]	< 1000 nM	< 1000 nM	< 1000 nM			
CC(=O)Nc1cn2cc(-c3cnc(N)c(C)c3)ccc2n1 [Example 208, N-(6-(6-amino-5-methylpyridin-3-yl)imidazo[1,2-a]pyridin-2-yl)acetamide]	< 10000 nM	< 1000 nM	< 1000 nM			
CC(=O)Nc1nc2ccc(-c3cnc(N)c(F)c3)cc2s1 [Example 2-6, N-[6-(6-Amino-5-fluoro-pyridin-3-yl)-benzothiazol-2-yl]-acetamide]				< 10000 nM	< 1000 nM	< 1000 nM
CC(=O)Nc1cn2cc(-c3cnc(N)c(F)c3)ccc2n1 [Example 28, N-[6-(6-Amino-5-fluoro-pyridin-3-yl)-imidazo[1,2-a]pyridin-2-yl]-acetamide]	< 25000 nM	< 1000 nM	< 1000 nM			
Nc1ncc(-c2ccc3nc(NC(=O)CCC4CCCCN4)cn3n2)cc1C(F)(F)F (stereo not drawn) [Example 59, N-(6-(6-amino-5-(trifluoromethyl)pyridin-3-yl)imidazo[1,2-b]pyridazin-2-yl)-3-(piperidin-2-yl)propanamide]	< 1000 nM	< 1000 nM	< 1000 nM			
COCCOc1nc(-c2ccc3nc(NC(C)=O)sc3c2)cnc1N [Example 2-32, N-(6-(5-amino-6-(2-methoxyethoxy)pyrazin-2-yl)benzo[d]thiazol-2-yl)acetamide]				< 10000 nM	< 1000 nM	< 1000 nM
CC(=O)Nc1cn2cc(-c3cnc(N)c(-c4ccccc4)c3)ccc2n1 [Example 124, N-(6-(6-amino-5-phenylpyridin-3-yl)imidazo[1,2-a]pyridin-2-yl)acetamide]	< 10000 nM	< 1000 nM	< 1000 nM			
Nc1ncc(-c2ccc3nc(NC(=O)CN4CCCCC4)cn3n2)cc1C(F)(F)F [Example 133, N-(6-(6-amino-5-(trifluoromethyl)pyridin-3-yl)imidazo[1,2-b]pyridazin-2-yl)-2-(piperidin-1-yl)acetamide]	< 10000 nM	< 1000 nM	< 1000 nM			
Nc1ncc(-c2ccc3nc(NC(=O)CCO)cn3c2)cc1C(F)(F)F [Example 205, N-(6-(6-amino-5-(trifluoromethyl)pyridin-3-yl)imidazo[1,2-a]pyridin-2-yl)-3-hydroxypropanamide]	< 10000 nM	< 1000 nM	< 1000 nM			
CC(=O)Nc1nc2ccc(-c3cnc(N)c(C(F)(F)F)c3)c(C)c2s1 [Example 2-27, N-[6-(6-Amino-5-trifluoromethyl-pyridin-3-yl)-7-methyl-benzothiazol-2-yl]-acetamide]				< 10000 nM	< 1000 nM	< 1000 nM
CC(=O)Nc1cn2nc(-c3cnc(N)c(C(=O)NCCNC(=O)OC(C)(C)C)c3)ccc2n1 [Example 103, tert-butyl 2-(5-(2-acetamido-imidazo[1,2-b]pyridazin-6-yl)-2-aminonicotin-amido)ethyl-carbamate]	< 1000 nM	< 1000 nM	< 1000 nM			
CCCNc1ccc(-c2ccc3nc(NC(C)=O)sc3c2)cn1 [Example 2-7, N-[6-(6-Propylamino-pyridin-3-yl)-benzothiazol-2-yl]-acetamide]				< 25000 nM	< 1000 nM	< 1000 nM
CC(=O)Nc1nc2ccc(-c3cnc(N)c(C(F)(F)F)c3)cn2c1-c1ccccc1 [Example 12, N-[6-(6-Amino-5-trifluoromethyl-pyridin-3-yl)-3-phenyl-imidazo[1,2-a]pyridin-2-yl]-acetamide]	< 25000 nM	< 1000 nM	< 10000 nM			
CC(C)(C)OC(=O)N1CCN(c2ccc(C(=O)Nc3cn4cc(-c5cnc(N)c(C(F)(F)F)c5)ccc4n3)cn2)CC1 [Example 85, tert-butyl 4-(5-(6-(6-amino-5-(trifluoromethyl)pyridin-3-yl)imidazo[1,2-a]pyridin-2-ylcarbamoyl)pyridin-2-yl)piperazine-1-carboxylate]	< 1000 nM	< 1000 nM	< 1000 nM			
